Experimental data published in patent US6444705B1, “Angiogenesis inhibitors” (Santen Pharmaceutical Co., Ltd., priority 1998, dated 2002).
Where a name gives a salt, the structure may show the parent alone.

Test system: chick chorioallantonic membrane
Assay: Inhibitory effect on angiogenesis in the chick chorioallantonic membrane
Type: in vivo, chick (white leghorn)
Details: pellet on embryo chorioallantonic membrane, cultured two days, rate = positive eggs/tested eggs x100
Experimental: It was reported that effects of drugs on angiogenesis were evaluated using fertilized egg embryo chorioallantonic membrane as an in vivo angiogenesis evaluation model (Biochem. Biophys. Res. Commun., 174, 1070-1076 (1991)). Accordingly, effects of a cysteine derivative on the angiogenesis evaluation model were studied according to the assay described in the above-mentioned literature.
1. Methyl cellulose (0.1 g) is dissolved in sterile purified water (10 ml) to prepare a 1% solution of methyl cellulose.
2. A test compound is dissolved in ethanol/sterile purified water (1/1) to prepare a 24 μmol/ml solution.
3. The 24 μmol/ml solution of the test compound is diluted with ethanol/sterile purified water (1/1) to prepare 12 μmol/ml and 6 μmol/ml solutions of the test compound.
4. The solution (0.20 ml) of the test compound having each concentration is mixed with the 1% solution (0.20 ml) of methyl cellulose to prepare a mixed solution of the test compound.
5. […]
Hatched eggs (white leghorn) of three days old after fertilization were put up by threes on a culture plate having six wells with their air phases upward and incubated in a CO2 incubator for 20 minutes (temperature: 37° C., humidity: 95%, CO2 concentration: 5%). […] Hatched eggs in which angiogenesis was not observed were defined as positive, and inhibition rates of angiogenesis were calculated by the following equation.

CC(C)(CS)C(=O)NC(CS)C(=O)NCCCCCCN (stereo in doubt) [N^1-(6-aminohexyl)-N^2-(2,2-dimethyl-3-mercaptopropionyl)-L-cysteinamide hydrochloride]
Inhibition rate of angiogenesis (%) (dose 0.06 μmol/egg): 80%
Inhibition rate of angiogenesis (%) (dose 0.12 μmol/egg): 93%
